According to patent publication US20250213532A1, “5-METHOXY-N,N-[…][…] THE TREATMENT OF BIPOLAR DISORDER” (GH RESEARCH IRELAND LIMITED, priority 2022, published 2025):

Assay: Pharmacokinetics after single inhaled dose (LC-MS/MS)
Type: in vivo, human
Method: Blood samples were obtained at 1; 2; 4; 7; 10; 15; 20; 30; 45 min and 1; 1.5; 2; 3; 4 hours after administration.
PK parameters were generated by algebraic analysis of the concentration versus time plots for each individual. The analysis was carried out using the software Phoenix WinNonlin 6.3.

CN(C)CCc1c[nH]c2ccc(O)cc12 [bufotenine]
Samples with bufotenine concentration above LLOQ (after inhaled 5-MeO-DMT, LLOQ 25 pg/ml): Only in few samples | Bufotenine blood concentrations under uptitration scheme vs single dose (subjects receiving an uptitration scheme included): Substantially similar observations
